Assays:
[1] = test system: HAP1 MTAP-intact cell line; assay: SDMA in-cell western assay, HAP1 MTAP-intact; type: cell-based; conditions: Homo sapiens
Method in brief: (§1)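 IC50 values come from an SDMA in-cell western run in isogenic HAP1 cells, either MTAP-null or expressing endogenous MTAP. The intact-to-deleted IC50 ratio is used to score MTAP selectivity.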

PRMT5 [2] = target: T1, PRMT5 (Homo sapiens, UniProt O14744); assay: PRMT5 inhibition assay with MTA as cofactor; type: biochemical; conditions: for IC50: against PRMT5 with MTA as cofactor; for SAM/MTA Ratio: ratio of Ki in the presence of SAM to Ki in the presence of MTA, Ki=IC50/1.5 (SAM), Ki=IC50/13.5 (MTA)
T1 construct: purchased Viva (custom protein)
Source text: (§2) The Ki values can be calculated from the IC50 values as described in the Examples section. As detailed in the Examples section, for the assay performed in the presence of SAM, IC50=Ki×1.5 (Ki=IC50/1.5). For the assay performed in the presence of MTA, IC50=Ki×13.5 (Ki=IC50/13.5). Column 6 indicates the ratio between the Ki of compounds in the presence of SAM and the Ki of compounds in the presence of MTA

[3] = test system: HAP1 MTAP-deleted cell line; assay: SDMA in-cell western assay, HAP1 MTAP-deleted; type: cell-based; conditions: for IC50: Homo sapiens, HAP1 MTAP-deleted (MTAP-null) cell line; for MTAP Intact/Deleted Ratio: IC50 ratio HAP1 MTAP-intact / HAP1 MTAP-deleted, >=3 fold considered MTAP-selective
Method in brief: as §1

PRMT5 [4] = target: T1, PRMT5; assay: PRMT5 inhibition assay with SAM as cofactor; type: biochemical; conditions: against PRMT5 in the presence of SAM as cofactor
Source text: as §2

PRMT5 [5] = target: T1, PRMT5; assay: PRMT5 inhibition assay with no cofactor; type: biochemical; conditions: against PRMT5 with no cofactor; read-out: No Co-factor IC50

T1 sequence (O14744 whole entry): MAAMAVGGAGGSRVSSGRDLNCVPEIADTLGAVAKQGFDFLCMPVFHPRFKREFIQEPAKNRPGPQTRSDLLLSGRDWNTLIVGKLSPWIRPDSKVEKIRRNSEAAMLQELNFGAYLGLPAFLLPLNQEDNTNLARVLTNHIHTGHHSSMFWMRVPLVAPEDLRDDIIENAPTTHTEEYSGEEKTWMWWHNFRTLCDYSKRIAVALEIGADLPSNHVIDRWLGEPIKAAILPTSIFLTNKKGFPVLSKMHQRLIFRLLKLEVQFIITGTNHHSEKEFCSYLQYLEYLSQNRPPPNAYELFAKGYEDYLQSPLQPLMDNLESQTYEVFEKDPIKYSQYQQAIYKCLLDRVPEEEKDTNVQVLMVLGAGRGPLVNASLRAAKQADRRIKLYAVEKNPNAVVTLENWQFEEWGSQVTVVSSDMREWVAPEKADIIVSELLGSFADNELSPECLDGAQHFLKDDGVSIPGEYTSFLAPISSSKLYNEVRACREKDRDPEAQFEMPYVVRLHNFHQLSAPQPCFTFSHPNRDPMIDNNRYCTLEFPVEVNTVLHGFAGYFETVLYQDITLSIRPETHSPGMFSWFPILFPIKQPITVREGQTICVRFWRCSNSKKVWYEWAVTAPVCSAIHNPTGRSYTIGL
T1 sequence (Q9BQA1 whole entry partner): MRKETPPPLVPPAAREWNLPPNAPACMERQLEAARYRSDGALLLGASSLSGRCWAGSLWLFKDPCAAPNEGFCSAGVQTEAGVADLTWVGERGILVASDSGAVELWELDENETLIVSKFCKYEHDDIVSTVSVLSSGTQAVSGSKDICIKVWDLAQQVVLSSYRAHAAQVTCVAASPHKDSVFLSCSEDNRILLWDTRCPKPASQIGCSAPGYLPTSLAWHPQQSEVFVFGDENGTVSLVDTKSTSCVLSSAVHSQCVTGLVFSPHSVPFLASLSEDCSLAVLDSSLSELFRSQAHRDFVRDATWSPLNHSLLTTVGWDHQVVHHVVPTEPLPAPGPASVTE

IC50 [1] [nM]	IC50 (PRMT5 [2]) [nM]	IC50 [3] [nM]	IC50 (PRMT5 [4]) [nM]	IC50 (PRMT5 [5]) [nM]	Structure (SMILES)	SAM/MTA Ratio (PRMT5 [2])	MTAP Intact/Deleted Ratio [3]
≥ 10000	< 50	< 1000	50 to 500	500 to 5000	CCOc1nc(N2CCN(C(=O)OC)CC2)ccc1C(=O)NC[C@@H](O)[C@@H]1Cc2ccc(OCc3ccnn3C)cc2CN1 [Compound 18, methyl 4-(6-ethoxy-5-(((R)-2-hydroxy-2-((S)-7-((1-methyl-1H-pyrazol-5-yl)methoxy)-1,2,3,4-tetrahydroisoquinolin-3-yl)ethyl)carbamoyl)pyridin-2-yl)piperazine-1-carboxylate]	A (a Ki ratio greater than or equal to 10 fold between the Ki in the presence of SAM and the Ki in the presence of MTA)	A* (an IC50 ratio greater than or equal to 10 fold between the IC50 in the HAP1 MTAP-intact cell line and the HAP1 MTAP-deleted cell line)
1000 to 10000	< 50	< 1000	50 to 500	50 to 500	Cc1ncoc1COc1ccc2c(c1)CN[C@H]([C@H](O)CNC(=O)c1ccc3c(c1)CCN(C(=O)c1ccc(Br)cc1)C3)C2 [Compound 20, 2-(4-bromobenzoyl)-N—((R)-2-hydroxy-2-((S)-7-((4-methyloxazol-5-yl)methoxy)-1,2,3,4-tetrahydroisoquinolin-3-yl)ethyl)-1,2,3,4-tetrahydroisoquinoline-6-carboxamide]	A (a Ki ratio greater than or equal to 10 fold between the Ki in the presence of SAM and the Ki in the presence of MTA)	A* (an IC50 ratio greater than or equal to 10 fold between the IC50 in the HAP1 MTAP-intact cell line and the HAP1 MTAP-deleted cell line)
1000 to 10000	< 50	< 1000	50 to 500	50 to 500	COc1ccc(C(=O)N2CCc3cc(C(=O)NC[C@@H](O)[C@@H]4Cc5ccc(OCc6ocnc6C)cc5CN4)ccc3C2)cc1 [Compound 21, N—((R)-2-hydroxy-2-((S)-7-((4-methyloxazol-5-yl)methoxy)-1,2,3,4-tetrahydroisoquinolin-3-yl)ethyl)-2-(4-methoxybenzoyl)-1,2,3,4-tetrahydroisoquinoline-6-carboxamide]	A (a Ki ratio greater than or equal to 10 fold between the Ki in the presence of SAM and the Ki in the presence of MTA)	A* (an IC50 ratio greater than or equal to 10 fold between the IC50 in the HAP1 MTAP-intact cell line and the HAP1 MTAP-deleted cell line)
< 1000	< 50	< 1000	50 to 500	50 to 500	Cc1ncoc1COc1ccc2c(c1)CN[C@H]([C@H](O)CNC(=O)c1ccc(OC3CCN(Cc4ccncc4)CC3)cc1)C2 [Compound 23, N—((R)-2-hydroxy-2-((S)-7-((4-methyloxazol-5-yl)methoxy)-1,2,3,4-tetrahydroisoquinolin-3-yl)ethyl)-4-((1-(pyridin-4-ylmethyl)piperidin-4-yl)oxy)benzamide]	A (a Ki ratio greater than or equal to 10 fold between the Ki in the presence of SAM and the Ki in the presence of MTA)	B* (an IC50 ratio greater than or equal to 3 fold but lower than 10 fold between the IC50 in the HAP1 MTAP-intact cell line and the HAP1 MTAP-deleted cell line)
≥ 10000	50 to 500	< 1000	50 to 500	50 to 500	CCN(C)c1cc(C(=O)NC[C@@H](O)[C@@H]2Cc3ccc(OCc4ocnc4C)cc3CN2)cc(NC2CCC2)n1 [Compound 24, 2-(cyclobutylamino)-6-(ethyl(methyl)amino)-N—((R)-2-hydroxy-2-((S)-7-((4-methyloxazol-5-yl)methoxy)-1,2,3,4-tetrahydroisoquinolin-3-yl)ethyl)isonicotinamide]	A (a Ki ratio greater than or equal to 10 fold between the Ki in the presence of SAM and the Ki in the presence of MTA)	A* (an IC50 ratio greater than or equal to 10 fold between the IC50 in the HAP1 MTAP-intact cell line and the HAP1 MTAP-deleted cell line)
